Test results: US6991804B2, “Delivery systems for periadventitial delivery for treatment of restenosis and anastomotic intimal hyperplasia” (Edwards Lifesciences Corporation, priority 2000, dated 2006)
Marks after values point to notes of the source that are not given here.

How the values were obtained:
[1] = test system: Balloon-injured Femoral Arteries; experiment: Balloon-injured femoral arteries: lumenal width by angiography; format: in vivo, Dogs; conditions: 12 weeks
Method: (§1) Balloon injury to the femoral arteries by three sequences of inflation and removal of a 4 Fr. Fogarty catheter generated 5 cm lesions in each femoral artery that were or were not treated with test/control articles. Injured areas were tagged with a staple. The insertion site was repaired and the animal was closed.
Angiography of the femoral arteries was performed at the termination of the experiment. Images were captured as described above and analyzed using NIH Image. Injured areas were identified by radio-opaque clips, and by anatomy. The lumenal widths of the arterial segments were measured just distal to the arteriotomy, and in the mid- and distal portions of the injured segments. The percent stenoses of the anastomoses relative to the adjacent native arterial segment were reported. The mean and least values were reported.
Images from angiography were captured and analyzed as described previously. The lumenal widths of the arterial segments were measured immediately distal to the arteriotomy, and in the mid- and distal portions of the injured segments.

[2] = test system: Balloon-injured Femoral Arteries; experiment: Balloon-injured femoral arteries: morphometric analysis of histology (media, intima, lumen area); format: in vivo, Dogs
Method: as §1
Carotid arteries were exposed and the healing response was evaluated. The grafts, including anastomoses, were fixed under pressure in situ, and were removed along with 4 cm of proximal and distal host vessel. Femoral arteries were exposed and the healing response was observed. The femoral arteries were then fixed under pressure and removed with distal and proximal host tissue. Femoral and carotid arteries were stored in 10% neutral-buffered formalin until analysis by histology. Specimens for histological evaluation were processed and stained with Hematoxalin and Eosin and with Mallory's Trichrome by IDEXX Veterinary Services, West Sacramento, Calif.
Histology of the femoral arteries was analyzed with Adobe Photoshop. Briefly, (1) the lumen-vessel interface, (2) the internal elastic lamina, and (3) the external elastic lamina were traced on digital images from H&E stained tissue with the greatest amount of hyperplasia. The intimal area was determined by subtracting the area encompassing […]. The medial area was determined by subtracting the area encompassing (2) from (3). The area was measured as (1).
Histology of sections from areas spanning proximal and distal regions of the balloon-injured femorals and of native tissue proximal to the arteriotomy were evaluated by morphometric analysis as described above.

[3] = post-surgery
Method: Animals received standard laboratory diet proscribed in QCOP B618, with supplements provided at the discretion of a veterinarian; water was available ad libitum.
Post-operative care was performed as described in QCOP B809, along with prophylactic administration of antibiotics (Sulfamethoxaxole and Trimethoprin); analgesics were supplied as described in QCOP B803. 7 days post surgery, animals received 250 mg/day aspirin. The wound site was debrided and temperature, heart rate and respiratory rates were monitored daily the week following surgery. Angiography of the carotid sites was performed following surgery and monthly thereafter. Intravascular ultrasound (IVUS) was used to examine the vein grafts in 10 animals at the 12 week endpoint of the study.

Carotid Vein Grafts = experiment: Carotid vein grafts (femoral vein interposition, end-to-side anastomoses): percent stenoses of anastomoses by angiography; format: in vivo, Dogs
Method: The animal was heparinized (100 IU/kg body weight), and anticoagulated at the surgeon's discretion with additional heparin. The carotid artery was cross-clamped and transected. An interpositional graft with end-to-side anastamoses of the femoral vein to the carotid artery was performed. Anastomoses were identified with a surgical staple. Where indicated, the test or control articles were applied to a uniform thickness and allowed to harden. Grafts were placed in both carotid arteries, with the procedures done in series.
Image analysis was performed by a qualified vascular surgeon who also analyzed the data. REF Images from angiography were captured on a VHS tape. Digital images were captured from this tape and saved after which they were evaluated using NIH Image. The lumenal width of the native arterial segments proximal and distal to the vein grafts, and the proximal and distal anastomoses were measured. The percent stenoses of the anastomoses relative to the adjacent native arterial segment were reported.
Images were captured as described in section above, and were evaluated by NIH Image. The lumenal width of native arterial segments proximal and distal to the graft and the proximal and distal anastomoses were measured.

[4] = pooled Paclitaxel groups (4 dogs, 8 vessels)
[5] = histology, 12 weeks, pooled Paclitaxel groups (4 dogs, 8 vessels)
[6] = angiography, 12 weeks, pooled Paclitaxel groups (4 dogs, 8 vessels)

CC(=O)O[C@H]1C(=O)[C@@]2(C)[C@H]([C@H](OC(=O)c3ccccc3)[C@]3(O)C[C@H](OC(=O)[C@H](O)[C@@H](NC(=O)c4ccccc4)c4ccccc4)C(C)=C1C3(C)C)[C@]1(OC(C)=O)CO[C@@H]1C[C@@H]2O [Paclitaxel ®, paclitaxel]
Difference between control, vehicle and Paclitaxel treatment groups in femoral lumenal width (statement in words) [1]: no significant difference | Least Lumenal Width of Balloon-Injured Segments Relative to Native Vessel ± Paclitaxel (Mean ± s.d) [1, 4]: 1.32 ± 0.47 mm | Men Lumenal Width of Balloon-Injured Segments Relative to Native Vessel ± Paclitaxel (Mean ± s.d.) [1, 4]: 1.52 ± 0.24 mm | Intima area of femoral artery in regions of intimal hyperplasia ± Paclitaxel (Mean ± s.d.) [2, 5]: 1.95 ± 1.00 mm^2 | Intima: Media Ratio ± Paclitaxel [2, 5]: 0.56 ± 0.23 | Lumen area of femoral artery in regions of intimal hyperplasia ± Paclitaxel (Mean ± s.d) [2, 5]: 4.98 ± 1.05* mm^2 | Media area of femoral artery in regions of intimal hyperplasia ± Paclitaxel (Mean ± s.d.) [2, 5]: 3.38 ± 0.84 mm^2 | Change in intimal: medial ratio (statement in words) ([2]; morphometric analysis of histology, femoral sections): absence of changes | Larger lumen width versus no Paclitaxel ([2]; morphometric analysis of histology, femoral sections with largest stenotic response, p</=0.06): 44% | Subcutaneous hematomas at the carotid site (animals affected/animals) ([3]; lesions resolved with time): 4/8 | Hematoma at the femoral site (animals affected/animals) ([3]; reduced in size with time and healed well): 2/8 | Stenosis at anastomotic sites of carotid grafts (statement in words) (Carotid Vein Grafts; angiography at the 12 week endpoint): limited stenosis at the proximal and distal anastomotic sites | Per Cent Stenoses of Carotid Grafts ± Paclitaxel, Distal Anastomotic Site (mean ± s.d.) (Carotid Vein Grafts; [6]): 1.1 ± 2.2% | Per Cent Stenoses of Carotid Grafts ± Paclitaxel, Proximal Anastomotic Site (mean ± s.d) (Carotid Vein Grafts; [6]): 5.9 ± 6.5%
